Square brackets hold non-standard residues; d marks the D form. Peptide text beside a SMILES is read from it. 2Nal = N[C@@H](Cc1ccc2ccccc2c1)C(=O)O
What was measured:
[1] = Pharmacokinetics of c2 after oral administration to Sprague Dawley rats (LC MS/MS); type: in vivo; settings: 100 mg/kg po
Description: Rat studies were performed under contract to the accredited animal research establishment ICP Firefly Pty Ltd. (Alexandria, NSW, Australia; Ref. No AW96/042, NSW Dep’t Primary Industries) with ethics approval from the ICP Firefly animal ethics committee. Briefly, male rats (Sprague Dawley, n = 5 / group) were treated with c2 (single dose 100 mg/kg suspended in 0.1% carboxymethylcellulose, po) and housed in metabolic cages. Animals were sacrificed at 1, 2, 8 or 24 h, blood and tissue samples taken for further analysis, with urine and faeces collected for 1, 6 and 16 hours respectively. Following extraction, c2 concentration in plasma was measured using a validated LC MS/MS assay (limit of detection 7.5 ng/mL and lower limit of quantitation 15 ng/mL in plasma, accuracy 98% and imprecision 12.7% at […]).

[2] = 28-day oral toxicity study: functional observation; type: in vivo, male Sprague Dawley rats; settings: for Grip strength (mean) Forelimb / Grip strength (mean) Hind limb: week 4
Description: 3.6. Procedure for test item administration […]
intragastric cannula attached to a 3 mL syringe.
3.7. Observation of animals […]
groups: Day 29; recovery groups: Day 43).
(Appendix C Study Data Spreadsheets). […]
report (Appendix C Study Data Spreadsheets). […]
3.7.5. Functional observation […]
s upine drop, grip strength test. […]

[3] = 28-day oral toxicity study: gross necropsy and organ weights; type: in vivo, male Sprague Dawley rats; settings: for Heart weight on Necropsy: n = 10, mean ± SD
Description: The observations were recorded in the form of a sp readsheet and attached as an app endix to the report (Appendix C Study Data Spreadsheets). […]
Haematology and Biochemistry). […]
(Appendix C Study Data Spreadsheets).
Following sacrifice by intraperitoneal injection of sodium pentobarbitone a gros s necrop sy wa s performed. This included determination of the wet weight of the liver, kidneys, adrenals, testes, spleen, thymus, heart, epididymis, prostate + semi nal vesicle s with coagulating glands as whole […]
and brain. […]
Tissues and carcas ses were placed in 10% formalin. The tissues to be processed for histopathological examinations were fixed for at least 48 hours prior to cassette preparation. […]
Slides were […]
evaluated for histology change s under light microscopy at a magnification of 100 to 1000 times.
Individual histopathology results and a summar y are attached a s an app endix to the report (Appendix E Histopathology).
3.14. Statistical analyses
Clinical observations, detailed clinical observations, functional observations, blood and urine analyses and histopathology were summarised by descriptive analysis.
Statistical analyses, consisting of unpaired t-tests, were performed on measured variables: percentage body weight gain s, food consumption and organ weights as a percentage of body weight. A significance level of P < 0.05 was used for all tests.

[4] = biological target: T1, hGIIA/vimentin interaction (Homo sapiens, UniProt P08670); assay: Enzyme immunoassay of hGIIA binding to vimentin coil 2; settings: in vitro; read-out: IC50, inhibition of the interaction between hGIIA and vimentin
T1 construct: Purified vimentin fragments (full length or coil 2) were seeded to a 96-well microplate at 15 μg/mL; hGIIA purified in house from conditioned medium of CHO cell line 2B1
T1 sequence (P08670 269-407 limits assumed): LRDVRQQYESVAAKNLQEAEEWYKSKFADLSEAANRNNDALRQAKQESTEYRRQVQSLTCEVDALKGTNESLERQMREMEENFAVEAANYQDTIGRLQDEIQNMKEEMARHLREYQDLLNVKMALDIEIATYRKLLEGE
Description: Prior to assay, hGIIA antibody 4A1 was conjugated to alkaline phosphatase (4A1-AP), produced using the lightning-link conjugation kit (ab102850, Abcam) as per the manufacturer’s instructions.
Purified vimentin fragments (full length or coil 2) were seeded to a 96-well microplate at 15 μg/mL with a 100 μL/well volume. After an overnight incubation at 4 °C, the plate was emptied. Each well was then blocked overnight at 4 °C with 200 μL of 1% BSA in PBS. The plate was emptied and washed with PBST (PBS + 0.05% Tween20). hGIIA solution of 100 ng/mL in PBS with 0.1% BSA was prepared with and without inhibitors c2, Withaferin A and LY311727 in DMSO with concentrations 0.1-100 µM. hGIIA working solution with 0.4% DMSO served as a positive control and PBS with 0.1% BSA served as a negative control. A 100 μL volume of each prepared hGIIA-inhibitor mixture was added to wells in triplicate and incubated at 37 °C for two hours. The plate was washed twice with PBST, then incubated with the 4A1-AP conjugate at 1 μg/mL 0.1% BSA in PBS and incubated for one hour at 37 °C. Plates were then emptied and washed three times with PBST, followed by washing twice with carbonate buffer (8 mM Na2CO3, 36 mM NaHCO3, 2 mM MgCl2, pH 9.8), before incubation with AP substrate p-nitro-phenyl phosphate (PNPP) powder at 1 mg/mL concentration in carbonate buffer. The plate was incubated at 37 °C for 60 mins then absorbance was read at 405 nm by a Spectramax M2 plate reader. All washes were a 200 µL/well volume.

[5] = Day 43, Gr 5 recovery, 20 mg/kg

For `CC(C)C[C@@H]1NC(=O)[C@H](Cc2ccc3ccccc3c2)NC(=O)[C@H](CCCNC(=N)N)NC(=O)[C@H](Cc2ccc3ccccc3c2)NC(=O)[C@H](CO)NC1=O` [c2, cyclo-((2-Nal)-Leu-Ser-(2-Nal)-Arg)] (cyclo([2Nal]LS[2Nal]R)), the “distribution after oral dosing” value [1] was “presence in the plasma, kidney and liver”, the excretion [1] was “majority excreted in faeces” and the “time of peak in urine” value [1] was 2 h. For the same compound, the functional observations tests ([2]; Week 4) was “no effect”, the “Grip strength (mean) Forelimb” value ([2]; Gr 2, 1 mg/kg) was 487 ± 33.0 and the “Grip strength (mean) Hind limb” value ([2]; Gr 2, 1 mg/kg) was 59 ± 3.2. For the same compound, the “Grip strength (mean) Forelimb” value ([2]; Gr 3, 20 mg/kg) was 458 ± 39.9, the “Grip strength (mean) Hind limb” value ([2]; Gr 3, 20 mg/kg) was 57 ± 2.5 and the “Grip strength (mean) Forelimb” value ([2]; Gr 5, 20 mg/kg) was 456 ± 47.2. For the same compound, the “Grip strength (mean) Hind limb” value ([2]; Gr 5, 20 mg/kg) was 61 ± 3.8, the “Heart weight (% body weight)” value ([3]; 1 mg/kg) was 0.31 ± 0.026 % body weight and the “Heart weight on Necropsy” value ([3]; 1 mg/kg) was 1.211 ± 0.1348 g. For the same compound, the “Heart weight (% body weight)” value ([3]; 20 mg/kg) was 0.34 ± 0.025 % body weight, the “Heart weight on Necropsy” value ([3]; 20 mg/kg) was 1.322 ± 0.1050 g and the “Organ weight: Adrenals” value ([3]; Day 29, Gr 2, 1 mg/kg) was 0.0454 ± 0.00783 g. For the same compound, the “Organ weight: Spleen” value ([3]; Day 29, Gr 2, 1 mg/kg) was 0.8031 ± 0.0637 g, the “effect on organ weights as a percentage of body weight” value ([3]; Day 29, Gr 2, 1 mg/kg) was “did not have any effect” and the “macroscopic changes at necropsy” value ([3]; Day 29, Gr 2, 1 mg/kg) was “No gross abnormalities”. For the same compound, the “Organ weight: Adrenals” value ([3]; Day 29, Gr 3, 20 mg/kg) was 0.0473 ± 0.00889 g, the “effect on organ weights as a percentage of body weight” value ([3]; Day 29, Gr 3, 20 mg/kg) was “did not have any effect” and the “macroscopic changes at necropsy” value ([3]; Day 29, Gr 3, 20 mg/kg) was “No gross abnormalities”. The “Organ weight (% body weight): Adrenals” value [3, 5] was 0.0097 ± 0.00158%, the “Organ weight: Adrenals” value [3, 5] was 0.0443 ± 0.0061 g and the “effect on organ weights as a percentage of body weight” value [3, 5] was “did not have any effect”. The “macroscopic changes at necropsy” value [3, 5] was “No gross abnormalities” and the IC50 [4] was 56.5 µM.

Source: PMC12876990, “Targeting secreted PLA2 interactions with EGFR and vimentin to arrest prostate tumour growth” (Cell Death & Disease, 2025)
